Experiment [1] relates to TCR-transgenic gp33-specific T cells. It counts as cell-based, mouse.
For experiment [2], the system named is EL-4 cells pulsed with gp33 peptide. The class given is cell-based, mouse.

“Also recorded” adds a separate entry of the source.

As for KAVYNFATM [gp33], in experiment [1], the IFN-γ production entry is on record as “transiently produced at an early stage”, the IFN-γ secretion entry is “higher amounts of IFN-gamma” and the IL-10 production result is recorded as “high amounts of IL-10 with an earlier onset”. Besides, the CTL response result in experiment [2] is given as “strongest CTL response; also recorded: weaker CTL responses”.

Values taken from patent US20080199485A1 (priority 2007, published 2008).
